The source made the active and inactive calls. The calls are words filed in the database; no cut-off is given here.
Tests used:
[1] = target: T1, Protein deacetylase HDAC6 (Homo sapiens, UniProt Q9UBN7); assay: Inhibition of HDAC6 (unknown origin)
T1 sequence (Q9UBN7 whole entry): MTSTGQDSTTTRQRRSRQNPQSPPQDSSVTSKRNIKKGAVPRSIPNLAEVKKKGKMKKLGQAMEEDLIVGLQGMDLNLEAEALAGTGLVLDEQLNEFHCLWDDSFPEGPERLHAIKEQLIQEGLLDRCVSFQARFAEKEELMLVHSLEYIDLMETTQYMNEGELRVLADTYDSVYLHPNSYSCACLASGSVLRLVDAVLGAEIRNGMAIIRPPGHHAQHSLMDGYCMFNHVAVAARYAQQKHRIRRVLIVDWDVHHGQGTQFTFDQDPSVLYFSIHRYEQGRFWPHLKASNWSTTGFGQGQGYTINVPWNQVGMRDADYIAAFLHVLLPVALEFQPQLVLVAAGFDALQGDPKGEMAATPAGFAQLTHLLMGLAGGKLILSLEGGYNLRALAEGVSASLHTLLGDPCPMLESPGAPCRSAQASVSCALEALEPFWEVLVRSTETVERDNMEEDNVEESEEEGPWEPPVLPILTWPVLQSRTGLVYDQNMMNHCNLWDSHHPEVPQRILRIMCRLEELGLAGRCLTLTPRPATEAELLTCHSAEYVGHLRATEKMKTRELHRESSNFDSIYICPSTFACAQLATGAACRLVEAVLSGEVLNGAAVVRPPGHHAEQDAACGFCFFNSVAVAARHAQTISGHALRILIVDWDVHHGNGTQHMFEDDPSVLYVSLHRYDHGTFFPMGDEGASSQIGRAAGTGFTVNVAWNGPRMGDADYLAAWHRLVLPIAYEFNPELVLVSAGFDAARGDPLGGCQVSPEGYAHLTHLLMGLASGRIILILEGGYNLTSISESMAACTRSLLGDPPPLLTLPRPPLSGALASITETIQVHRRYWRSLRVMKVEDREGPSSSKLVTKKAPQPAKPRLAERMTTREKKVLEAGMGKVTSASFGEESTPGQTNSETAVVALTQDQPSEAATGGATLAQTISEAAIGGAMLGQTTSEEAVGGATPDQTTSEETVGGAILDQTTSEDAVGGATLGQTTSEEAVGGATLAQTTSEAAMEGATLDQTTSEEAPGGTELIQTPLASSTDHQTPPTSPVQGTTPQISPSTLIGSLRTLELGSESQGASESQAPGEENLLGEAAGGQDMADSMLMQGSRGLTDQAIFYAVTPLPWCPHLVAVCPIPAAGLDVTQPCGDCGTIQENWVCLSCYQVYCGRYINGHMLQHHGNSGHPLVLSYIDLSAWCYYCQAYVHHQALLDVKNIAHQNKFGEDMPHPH

A-375 = assay: Cytotoxicity against human A375 cells assessed as growth inhibition after 72 hrs by MTS assay; assay type: functional, cell-based; conditions: A-375, 72 h
Histone deacetylase 1 [2] = target: T2, Histone deacetylase 1 (Homo sapiens, UniProt Q13547); assay: Inhibition of HDAC1 (unknown origin)
T2 sequence (Q13547 whole entry): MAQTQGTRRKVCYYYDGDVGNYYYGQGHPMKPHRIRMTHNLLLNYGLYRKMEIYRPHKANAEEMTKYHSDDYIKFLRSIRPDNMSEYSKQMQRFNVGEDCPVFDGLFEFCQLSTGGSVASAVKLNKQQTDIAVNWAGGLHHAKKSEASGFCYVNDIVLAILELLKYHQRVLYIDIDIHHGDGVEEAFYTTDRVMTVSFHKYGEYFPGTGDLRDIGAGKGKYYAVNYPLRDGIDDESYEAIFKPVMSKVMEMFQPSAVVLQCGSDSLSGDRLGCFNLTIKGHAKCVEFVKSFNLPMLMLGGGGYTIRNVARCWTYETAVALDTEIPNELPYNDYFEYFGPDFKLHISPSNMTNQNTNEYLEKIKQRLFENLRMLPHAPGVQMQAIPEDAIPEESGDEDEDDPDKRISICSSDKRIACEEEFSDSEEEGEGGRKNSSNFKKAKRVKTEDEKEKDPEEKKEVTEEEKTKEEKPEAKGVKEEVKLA

LNCaP = assay: Cytotoxicity against human LNCAP cells assessed as growth inhibition after 72 hrs by MTS assay; assay type: functional, cell-based
B16-F10 [3] = assay: Cytotoxicity against mouse B16F10 cells assessed as growth inhibition after 72 hrs by MTS assay; assay type: functional, cell-based; conditions: B16-F10, 72 h
B16-F10 [4] = assay: Cytotoxicity against mouse B16F10 cells assessed as growth inhibition after 72 hrs in presence of verapamil by MTS assay; assay type: functional, cell-based
[5] = target: T3, Protein deacetylase HDAC6 (Mus musculus) (UniProt Q9Z2V5); assay: Inhibition of HDAC6 in mouse B16F10 cells assessed as accumulation of acetylated tubulin at 20 uM after 24 hrs by Western blot analysis; assay type: cell-based
T3 sequence (whole entry): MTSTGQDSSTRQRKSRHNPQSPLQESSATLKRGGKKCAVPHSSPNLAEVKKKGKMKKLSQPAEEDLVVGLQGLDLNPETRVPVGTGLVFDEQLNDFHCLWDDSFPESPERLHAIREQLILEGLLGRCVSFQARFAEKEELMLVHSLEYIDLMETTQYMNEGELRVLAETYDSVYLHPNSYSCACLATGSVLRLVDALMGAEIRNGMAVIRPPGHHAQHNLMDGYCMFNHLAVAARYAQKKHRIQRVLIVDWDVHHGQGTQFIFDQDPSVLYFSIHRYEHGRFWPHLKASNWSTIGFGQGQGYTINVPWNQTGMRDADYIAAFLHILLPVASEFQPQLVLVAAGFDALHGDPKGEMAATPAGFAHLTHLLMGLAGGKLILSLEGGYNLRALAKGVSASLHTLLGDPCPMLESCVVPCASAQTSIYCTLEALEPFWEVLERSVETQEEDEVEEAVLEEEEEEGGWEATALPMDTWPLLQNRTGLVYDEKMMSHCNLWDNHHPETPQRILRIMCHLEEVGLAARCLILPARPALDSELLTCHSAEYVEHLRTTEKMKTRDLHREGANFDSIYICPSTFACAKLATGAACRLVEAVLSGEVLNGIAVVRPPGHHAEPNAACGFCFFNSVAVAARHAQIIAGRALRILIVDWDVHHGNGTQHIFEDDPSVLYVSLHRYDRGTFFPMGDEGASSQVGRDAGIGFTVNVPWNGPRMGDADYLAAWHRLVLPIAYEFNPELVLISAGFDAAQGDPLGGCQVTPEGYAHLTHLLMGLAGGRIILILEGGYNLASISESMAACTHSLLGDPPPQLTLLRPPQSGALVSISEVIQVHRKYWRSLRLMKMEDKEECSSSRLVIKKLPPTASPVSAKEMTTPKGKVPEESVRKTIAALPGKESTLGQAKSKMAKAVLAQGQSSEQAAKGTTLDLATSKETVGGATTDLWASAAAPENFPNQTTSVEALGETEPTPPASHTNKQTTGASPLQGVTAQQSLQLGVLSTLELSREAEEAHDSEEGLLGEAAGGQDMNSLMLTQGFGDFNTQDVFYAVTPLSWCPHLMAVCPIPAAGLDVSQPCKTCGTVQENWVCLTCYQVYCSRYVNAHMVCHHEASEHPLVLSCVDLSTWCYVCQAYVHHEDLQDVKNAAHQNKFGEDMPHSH

B16-F10 [6] = assay: Cytotoxicity against mouse B16F10 cells assessed as growth inhibition at 25 to 50 uM after 72 hrs by MTS assay; assay type: functional, cell-based
[7] = target: T4, Protein deacetylase HDAC6 (Homo sapiens) (UniProt Q9UBN7); assay: Inhibition of HDAC6 (unknown origin) at 5 uM relative to control
T4 sequence (whole entry): T1 sequence (Q9UBN7 whole entry)

[8] = target: T5, Histone deacetylase 8 (Homo sapiens) (UniProt Q9BY41); assay: Inhibition of HDAC8 (unknown origin) at 5 uM relative to control
T5 sequence (whole entry): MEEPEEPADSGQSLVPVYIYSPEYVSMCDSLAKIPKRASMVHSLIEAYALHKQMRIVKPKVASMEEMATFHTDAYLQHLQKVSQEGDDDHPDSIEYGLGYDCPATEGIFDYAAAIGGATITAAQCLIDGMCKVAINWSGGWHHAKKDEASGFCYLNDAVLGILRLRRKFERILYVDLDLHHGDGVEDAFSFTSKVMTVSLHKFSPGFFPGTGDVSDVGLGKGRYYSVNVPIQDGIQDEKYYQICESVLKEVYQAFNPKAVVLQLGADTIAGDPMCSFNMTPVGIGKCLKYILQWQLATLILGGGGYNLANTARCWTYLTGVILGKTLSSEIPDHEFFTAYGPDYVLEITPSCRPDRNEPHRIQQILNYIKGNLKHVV

Histone deacetylase 1 [9] = target: T2, Histone deacetylase 1; assay: Inhibition of HDAC1 (unknown origin) at 5 uM relative to control
[10] = target: T3, Protein deacetylase HDAC6 (Mus musculus); assay: Inhibition of HDAC6 in mouse B16F10 cells assessed as accumulation of acetylated tubulin after 24 hrs by Western blot analysis; assay type: cell-based
[11] = target: T3, Protein deacetylase HDAC6 (Mus musculus); assay: Inhibition of HDAC6 in mouse B16F10 cells assessed as accumulation of acetylated tubulin at 5 to 50 uM after 24 hrs by Western blot analysis; assay type: cell-based

Row | IC50 [1] | IC50 (Histone deacetylase 1 [2]) | inhibition [5] | inhibition [7] | inhibition [8] | inhibition (Histone deacetylase 1 [9]) | inhibition [10] | inhibition [11] | SMILES | IC50 (A-375) | IC50 (LNCaP) | IC50 (B16-F10 [3]) | growth inhibition (GI) (B16-F10 [4]) | growth inhibition (GI) (B16-F10 [6])
1 | 0.17 µM | 0.1 µM | – | – | – | – | – | – | CCN(CC)CCNC(=O)c1ccc(-c2cn(CCCCCC(=O)NO)nn2)cn1 | > 100 µM | 10.5 µM | > 100 µM | – | –
2 | 0.034 µM | 0.017 µM | – | – | – | – | – | – | CCN(CC)CCNC(=O)c1ccc(-c2cn(CCCCCCC(=O)NO)nn2)cn1 | 47.2 µM | 1.5 µM | 55.7 µM | inactive | –
3 | – | – | Active | – | – | – | – | – | O=C(CCCCCCC(=O)Nc1ccccc1)NO | – | – | – | – | –
4 | – | – | Active | – | – | – | – | – | COc1ccc2cc(-c3cn(CCCCCC(=O)NO)nn3)ccc2c1 | 12.6 µM | 5.1 µM | 10.5 µM | – | –
5 | – | – | – | 99% | 52% | 100% | Dose-dependent effect | – | CCN(CC)CCNC(=O)c1ccc(C(=O)ONC(=O)CCCCCn2cc(-c3ccc4cc(OC)ccc4c3)nn2)cc1 | 25.9 µM | 6.46 µM | 27.8 µM | – | Active
6 | 0.016 µM | 0.0038 µM | – | – | – | – | – | Active | CCN(CC)CCNC(=O)c1ccc(-c2cn(CCCCCCC(=O)NO)nn2)cc1 | 23.6 µM | 1.2 µM | 34.2 µM | inactive | Active
7 | 0.027 µM | 0.012 µM | – | – | – | – | – | – | CCN(CC)CCNC(=O)c1ccc(-c2cn(CCCCCCCC(=O)NO)nn2)cc1 | > 100 µM | 3 µM | 75.9 µM | – | –
